# Assay results reported in patent US20030017976A1, “Therapeutic properties of liposome-encapsulated immunomodulators” (priority 1998, published 2003).
# Marks after values point to notes of the source that are not given here.
# How the values were obtained:
# [1] = test system: peritoneal exudate macrophages (PEM); assay: Nitrite (NO) production by mouse peritoneal exudate macrophages; format: cell-based; conditions: available to 1×10^5 PEM
# Protocol: Peritoneal exudate macrophages (PEM) were collected by peritoneal lavage from mice given an intraperitoneal injection of 2.0 ml of thioglycollate broth (Baltimore Biological Laboratory, Cockeysville, Md.) 4 days before harvest (Dong Z, O'Brian C A, et al. J Leukoc Biol (1993) 53:53-60; Xie K, Huang S, et al. Cancer Res (1995) 55:3123-31). The PEM were washed in Ca^+2- an Mg^2+-free HBSS and resuspended in serum-free medium: 1×10^5 cells were plated into each 38-mm^2 well of 96-2311 culture plates (Falcon Plastics, Oxnard, Calif.). After a 90-min incubation, the nonadherent cells were removed by washing with medium. More than 98% of the adherent cell populations were macrophages according to morphology and phagocytic criteria (Saiki I, et al. J Immunol (1985) 135:684-8). […] After treatment, the cultures were washed and macrophage-mediated cytotoxicity against different tumor targets was determined. […]
# Nitrite accumulation in the culture supernatant was measured in a colorimetric assay as described previously (Ding A E, et al. J Immunol (1988) 141:2407-12). […] The mixtures were incubated 10 min with shaking, and A540 was measured with the use of a microplate reader (Model 3550; Bio-Rad Corp., San Francisco, Calif.). The concentration of nitrite was determined by comparing it with a standard solution of sodium nitrite in medium.
# TG-Mø from C57BL/6 mice = assay: NO production in TG macrophages by free-form and tablet JBT 3002; format: cell-based, mouse; conditions: 24 hr
# Protocol: Preparation of tablet to free-form in water. Tablet placed in 10 ml sterile, pyrogen-free water for 2-3 min with shaking at room temperature, then 10 ml more water added using Lot PCOO2.115. At 100 μg/tablet, this gave 5 ug/ml active material. Solution opaque with “carrier”-appearing material. Settled to bottom. Placed at 37° C. for about 5 min. pH tested at 8.0. Two aliquots of 10 ml taken. One aliquot was taken to pH 1.5 by a single drop of concentrated HCl. Both samples were placed in a water bath at 37° C. for 30 min. The low pH sample was restored to pH 7.7 with NaOH (took about 5 drops of the NaOH, IN solution). The samples were brought to 50 ml by addition of water, and the final pH was 8.0 for the original and 7.43 for the low pH sample. The solutions were still slightly opaque and filtering with a 0.2 micron filter cleared the solution. Aliquots of about 25 ml were measured in an assay for NO production by macrophages and testing of the working dilution for endotoxin.
# tumor cells = assay: Macrophage-mediated tumor cytotoxicity, target cells not named; format: cell-based; conditions: available in MLV to 1×10^5 cells
# Protocol: Cytotoxicity was assayed by measuring release of radioactivity from target cell DNA as described previously (Dong Z, et al. J Exp Med (1993) 177:1071-7). Briefly, tumor target cells in their exponential growth phase were incubated in medium containing 0.25 μCi/ml of [^3H]TdR (sp. Act. 2 Ci/mmol) (ICN Biomedicals, Inc., Irvine, Calif.) for 24 h. The cells were washed three times with HBSS to remove unbound radioactivity and then harvested by trypsinization (0.25% trypsin in 0.02% EDTA), washed, and resuspended in medium. Cells were plated (at 1×10^4/well) into wells containing control or test macrophages to achieve an E/T cell ratio of 10:1. At this density, macrophages incubated in medium (control) were not cytotoxic to neoplastic cells (Weinstein SL, et al. Proc Natl Acad Sci USA (1991) 88:4148-52; Dong Z, et al. JLeukoc Biol (1993) 53:53-60). […] The lysate was harvested with harvester 96 (Tomtec, Orange, Conn.) and counted for residual radioactivity in a liquid scintillation counter. Macrophage-mediated cytotoxicity was calculated as follows: […]
# Efficient activation of macrophages by LPS requires priming by IFN-γ (Saiki I, et al. J Immunol (1985) 135:684-8). […] Tumor cytotoxicity was measured 72 h after the addition of radiolabeled tumor cells to the activated macrophages. […]
substance,measurement,setting,value
N-hexadecanol-S-[2(R)-3-diodecanoyloxypropyl]-L-cysteinyl-L-alanyl-D-isoglutaminyl-glycyl-taurine sodium salt [JBT3002],minimal concentration of JBT3002 required to generate significant levels of NO (20 μM),[1],0.12 to 0.15 ng
same,nitrite,"TG-Mø from C57BL/6 mice; Table 17, JBT 0.003 ng/ml, IFN-γ (10 U/ml)",17.5 µM
same,nitrite,"TG-Mø from C57BL/6 mice; Table 17, JBT 0.003 ng/ml, medium",0 µM
same,nitrite,"TG-Mø from C57BL/6 mice; Table 17, JBT 0.016 ng/ml, IFN-γ (10 U/ml)",33.7 µM
same,nitrite,"TG-Mø from C57BL/6 mice; Table 17, JBT 0.016 ng/ml, medium",0 µM
same,nitrite,"TG-Mø from C57BL/6 mice; Table 17, JBT 0.08 ng/ml, IFN-γ (10 U/ml)",41 µM
same,nitrite,"TG-Mø from C57BL/6 mice; Table 17, JBT 0.08 ng/ml, medium",0 µM
same,nitrite,"TG-Mø from C57BL/6 mice; Table 17, JBT 0.4 ng/ml, IFN-γ (10 U/ml)",44.7 µM
same,nitrite,"TG-Mø from C57BL/6 mice; Table 17, JBT 0.4 ng/ml, medium",0 µM
same,nitrite,"TG-Mø from C57BL/6 mice; Table 17, JBT 2 ng/ml, IFN-γ (10 U/ml)",53.1 µM
same,nitrite,"TG-Mø from C57BL/6 mice; Table 17, JBT 2 ng/ml, medium",0 µM
same,nitrite,"TG-Mø from C57BL/6 mice; Table 17, JBT 10 ng/ml, IFN-γ (10 U/ml)",60.9* μM
same,nitrite,"TG-Mø from C57BL/6 mice; Table 17, JBT 10 ng/ml, medium",8.4 µM
same,nitrite,"TG-Mø from C57BL/6 mice; Table 18, JBT3002 0.0001 ng/ml, 10 U/ml IFN-γ",0
same,nitrite,"TG-Mø from C57BL/6 mice; Table 18, JBT3002 0.0001 ng/ml, medium",0
same,nitrite,"TG-Mø from C57BL/6 mice; Table 18, JBT3002 0.001 ng/ml, 10 U/ml IFN-γ",8.5
same,nitrite,"TG-Mø from C57BL/6 mice; Table 18, JBT3002 0.001 ng/ml, medium",0
same,nitrite,"TG-Mø from C57BL/6 mice; Table 18, JBT3002 0.01 ng/ml, 10 U/ml IFN-γ",19.5
same,nitrite,"TG-Mø from C57BL/6 mice; Table 18, JBT3002 0.01 ng/ml, medium",0
same,nitrite,"TG-Mø from C57BL/6 mice; Table 18, JBT3002 0.1 ng/ml, 10 U/ml IFN-γ",27.7
same,nitrite,"TG-Mø from C57BL/6 mice; Table 18, JBT3002 0.1 ng/ml, medium",0
same,nitrite,"TG-Mø from C57BL/6 mice; Table 18, JBT3002 1 ng/ml, 10 U/ml IFN-γ",37.7
same,nitrite,"TG-Mø from C57BL/6 mice; Table 18, JBT3002 1 ng/ml, medium",0
same,nitrite,"TG-Mø from C57BL/6 mice; Table 18, JBT3002 10 ng/ml, 10 U/ml IFN-γ",47.1
same,nitrite,"TG-Mø from C57BL/6 mice; Table 18, JBT3002 10 ng/ml, medium",0.5
same,minimal concentration of JBT3002 for significant activation of tumoricidal properties in PEM,tumor cells,1.5 ng
